Measured values published in paper PMC9291755, “The Effect of Food on the Pharmacokinetics of the Potassium‐Competitive Acid Blocker Vonoprazan” (Clinical Pharmacology in Drug Development, 2021).
“Also recorded” adds a separate entry of the source. Where two headings read alike, the source gives them in different places.

Tests used:
[1] = design: method as in PMID 25707624, PMID 28198590, PMID 26193978, PMID 31990424; details: 212 healthy volunteers, daily doses up to 40 mg for up to 7 days; cited from earlier work
[2] = tested on: cytochrome P450 (CYP) 3A4; design: method as in PMID 26369775, PMID 29383028, PMID 27414183; details: lesser extent by CYP2B6, CYP2C19, CYP2D6; cited from earlier work
[3] = Phase 1 randomized open-label crossover food-effect pharmacokinetic study, plasma vonoprazan by LC-MS/MS; type: in vivo, healthy Caucasian male and female subjects (human); details: for AUC / Cmax / tmax: po, 20 mg; for tmax: read-out: tmax, median (min, max)
Description: This was a randomized, open‐label, 2×2 crossover, phase 1 study stratified by gender in healthy Caucasian male and female subjects. The study was conducted at a single site in Northern Ireland (MDS Pharma Services, Belfast, Northern Ireland). The study was approved by an independent ethics committee (Edinburgh Independent Ethics Committee, Edinburgh, Scotland). Written informed consent was obtained from all subjects before study initiation.
The enrolled study population included 12 men and 14 women aged 18 to 45 years, of Caucasian ethnicity, considered eligible on the basis of study inclusion and exclusion criteria. To be eligible, subjects must have been in good health and have had clinical laboratory evaluations (including clinical chemistry, hematology, and urinalysis) within the reference range for the testing laboratory, or only minor deviations that were deemed by the investigator to be clinically nonsignificant. Additional inclusion criteria included a body mass index between 18 and 30 kg/m^2 and a willingness to provide written informed consent before any screening procedures; abstention from caffeine, alcohol, and strenuous exercise from 72 hours before dosing until the follow‐up call/visit; and use of adequate contraception from screening, throughout the study, and for 30 days following the last dose of study medication (applicable to female subjects of childbearing potential who were sexually active) or for 12 weeks after the follow‐up visit (applicable to male subjects with female partners, both of whom were required to use contraception). In addition to caffeine and alcohol, subjects who had received the following were excluded from participation: nicotine products 6 weeks before the first dose of study medication; antibiotics within 28 days prior to initial screening; prescription medication or St. John's wort, ginseng, kava, ginkgo biloba, melatonin, herbal or homeopathic preparations, or other nutriceuticals within 28 days before the first dose; over‐the‐counter medication including salicylates (except when approved on a case‐by‐case basis) or vitamin supplements within 14 days before the first dose; and grapefruit or grapefruit products, Seville oranges (sour) or products, or poppy seeds within 7 days before the first dose.
Subjects were randomized to either the fed/fasted state or fasted/fed state sequence, with randomization stratified by sex. Eligible subjects received a single 20‐mg dose of vonoprazan (given as two 10‐mg tablets) either following an overnight fast or 30 minutes after a breakfast (≈900 calories, with 62% of the calories from fat, 23% from carbohydrate, and 14% from protein).
After a 5‐day washout period, subjects received a second 20‐mg dose of vonoprazan in the alternative fed/fasted state, and the identical process was performed. During dosing in the fasted state, subjects fasted for 10 hours before receiving the study drug. During dosing in the fed state, subjects fasted for 10 hours and then consumed the breakfast, which was started 30 minutes before dosing and eaten in ≤30 minutes. Vonoprazan was taken with 240 mL of water, and subjects refrained from eating for 4 hours after dosing. Water (200 mL) was given to all subjects at 2 and 4 hours after dosing. All administrations of vonoprazan were taken under supervision.
Plasma concentrations of vonoprazan were determined using a liquid chromatography–tandem mass spectrometry assay with a validated concentration range of 0.1 to 100 ng/mL. A total of 864 samples were analyzed in 13 reported batches. The bioanalytical method utilized protein precipitation and extraction of plasma samples with acetonitrile‐formic acid (100:0.2, v/v) before analysis by liquid chromatography–tandem mass spectrometry. […]

[4] = design: method as in PMID 25707624; details: 20 mg once daily after ≥10-hour fast, cited from earlier work
[5] = cited from earlier work
[6] = design: method as in PMID 25707624; details: 20 mg once daily after ≥10-hour fast, cited from earlier work; remark: listed apart in the source
[7] = Safety/tolerability in the food-effect study (adverse events, vital signs, ECG, laboratory tests); details: for Incidence of AEs: single 20-mg dose, 24 subjects
Description: Safety variables included physical examination findings; vital signs; electrocardiograms; clinical laboratory evaluations including hematology, chemistry, and urinalysis; and treatment‐emergent adverse events (AEs).
The safety analysis set comprised all enrolled subjects who received at least 1 dose of vonoprazan and was used for safety and baseline demographics summaries.

gastric acid secretion = tested on: gastric acid secretion; design: method as in PMID 26111126; details: single doses ≥20 mg, clinical studies; cited from earlier work
[8] = design: method as in PMID 17575528, PMID 21132072; details: no enteric coating required; cited from earlier work
[9] = design: method as in PMID 26369775; details: single 20 mg, cited from earlier work
[10] = single 20-mg doses, fed and fasted
[11] = 12 healthy Japanese adult men, unchanged vonoprazan

CNCc1cc(-c2ccccc2F)n(S(=O)(=O)c2cccnc2)c1.O=C(O)/C=C/C(=O)O [vonoprazan, 1‐[5‐(2‐fluorophenyl)‐1‐(pyridin‐3‐ylsulfonyl)‐1H‐pyrrol‐3‐yl]‐N‐methylmethanamine monofumarate]
safety signals [1]: no safety signals
metabolizing enzymes [2]: primarily metabolized by cytochrome P450 (CYP) 3A4
AUC ([3]; both sexes, human, plasma, single 20-mg oral dose, fasted, N = 24, read-out: AUC0‐24, least-squares mean): 154 ng·h/mL
AUC ([3]; both sexes, human, plasma, single 20-mg oral dose, fasted, N = 24, read-out: AUC0‐∞, least-squares mean): 171 ng·h/mL
Cmax ([3]; both sexes, human, plasma, single 20-mg oral dose, fasted, N = 24, read-out: Cmax, least-squares mean): 17.3 ng/mL
AUC ([3]; both sexes, human, plasma, single 20-mg oral dose, fasted, n = 24, plasma, read-out: AUC0‐24, mean (SD)): 161 ng·h/mL
AUC ([3]; both sexes, human, plasma, single 20-mg oral dose, fasted, n = 24, plasma, read-out: AUC0‐∞, mean (SD)): 179 ng·h/mL
Cmax ([3]; both sexes, human, plasma, single 20-mg oral dose, fasted, n = 24, plasma, read-out: Cmax, mean (SD)): 18.2 ng/mL
tmax ([3]; both sexes, human, plasma, single 20-mg oral dose, fasted, n = 24): 2 h
Cmax ([3]; both sexes, human, plasma, single 20-mg oral dose, fed (high-fat breakfast), n = 24, plasma, read-out: Cmax, mean (SD)): 18.9 ng/mL
AUC ([3]; both sexes, human, plasma, single 20-mg oral dose, fed, N = 24, read-out: AUC0‐24, least-squares mean): 174 ng·h/mL
AUC ([3]; both sexes, human, plasma, single 20-mg oral dose, fed, N = 24, read-out: AUC0‐∞, least-squares mean): 196 ng·h/mL
Cmax ([3]; both sexes, human, plasma, single 20-mg oral dose, fed, N = 24, read-out: Cmax, least-squares mean): 18.2 ng/mL
AUC ([3]; both sexes, human, plasma, single 20-mg oral dose, fed, n = 24, plasma, read-out: AUC0‐24, mean (SD)): 182 ng·h/mL
AUC ([3]; both sexes, human, plasma, single 20-mg oral dose, fed, n = 24, plasma, read-out: AUC0‐∞, mean (SD)): 206 ng·h/mL
tmax ([3]; both sexes, human, plasma, single 20-mg oral dose, fed, n = 24): 4 h
half-life ([3]; both sexes, human, plasma, single 20-mg oral dose, fed, n = 24, read-out: t1/2 (terminal elimination half-life), mean (SD) (converted)): 6.9 h
Effect of food on exposure ([3]; single 20-mg dose, fed vs fasted, CI within 80% to 125%): not meaningfully affected by food; also recorded: not materially affected by food
AUC0‐24, fed/fasted ratio of geometric (least-squares) means ([3]; single 20-mg oral dose, N = 24): 1.13
AUC0‐∞, fed/fasted ratio of geometric (least-squares) means ([3]; single 20-mg oral dose, N = 24): 1.15
Cmax, fed/fasted ratio of geometric (least-squares) means ([3]; single 20-mg oral dose, N = 24): 1.05
t1/2 (terminal elimination half-life), mean (SD) ([3]; single 20-mg oral dose, fasted, n = 24): 6.9 (1.45) h
tmax ([4]; day 1, Japanese study): 1.5 h
tmax ([4]; day 7, Japanese study): 1.5 h
influence of CYP2C19 polymorphisms on pharmacokinetics ([5]; Japanese repeated-dose study and earlier phase 1 study): not influenced by CYP2C19 polymorphisms
accumulation in plasma after multiple doses ([5]; doses from 10 to 40 mg, days 1 and 7): little to no accumulation
median time of peak plasma concentrations (tmax) ([5]; oral, once-daily dosing): ≤ 2 h
tmax ([6]; day 1, UK study): 1.5 h
tmax ([6]; day 7, UK study): 1.1 h
Incidence of AEs ([7]; fasted state): 12.5%
Incidence of AEs ([7]; fed state): 8.3%
Tolerability ([7]; single 20-mg doses given on 2 occasions, healthy subjects): safe and well tolerated
Changes in liver function tests [7, 10]: no obvious treatment‐emergent changes
Changes in vital signs, 12-lead electrocardiograms, laboratory safety tests [7, 10]: no clinically important changes
Serious AEs and deaths during the study [7, 10]: No serious AEs and no deaths
Severity of reported AEs [7, 10]: mild
Number of adverse events ([7]; whole study, four subjects affected): 6
Tolerability (gastric acid secretion): well tolerated
duration of action (gastric acid secretion): 24 h
onset of action (gastric acid secretion): < 4 h
acid stability [8]: acid stable
AUC0‐48, fed/fasted ratio [9, 11]: 1.08
Cmax, fed/fasted ratio [9, 11]: 1.09
AUC0‐∞ ([9]; fasted state, Japanese men): 225.3 ng·h/mL
Cmax ([9]; fasted state, Japanese men): 24.3 ng/mL
median tmax ([9]; fasted state, Japanese men): 1.5 h
t1/2 ([9]; fasted state, Japanese men): 7.7 h
median tmax ([9]; fed state, Japanese men): 3.0 h
